Test results taken from patent US9327013B2, “Activity enhancer for anticancer agent” (TOKYO UNIVERSITY OF SCIENCE FOUNDATION, priority 2011, dated 2016).
Square brackets hold non-standard residues; d marks the D form. Ends that are not written are not given here. Peptide text beside a SMILES is read from it. NMeE = CN[C@@H](CCC(=O)O)C(=O)O

Experiment: Stability of peptide in human serum (residual adhesion inhibitory activity after serum incubation)
Type: in vitro ADME
Details: for stability of activity in human serum (in words): 500 μg/mL in 90% human serum, 0 to 56 hours, FIGS. 2A to 2D; for residual adhesion inhibitory activity after serum treatment: untreated FNIII14 = 100
Experimental: FNIII14 (500 μg/mL), each of the modified peptides (500 μg/mL), or a solution thereof was incubated in human serum (final concentration 90%; 0.01% of sodium azide as a preservative having been added thereto) under a condition of 37° C. and 5% CO2 for determined periods in a range of from 0 to 56 hours. Thereafter, each sample was diluted with DMEM (-) such that the peptide concentration in each well would be 25 μg/mL, and was inoculated onto a 96-well tissue culture plate together with A375SM cells prepared at 1.5×10^4/well, the 96-well tissue culture plate having been coated with 0.5 μg/mL of FN. After the plate was subjected to culturing for a certain time, […] of a PBS (-) solution containing 4% of formalin and 5% of sucrose was gently added to wells, and left to stand at room temperature for 1 hour, whereby the cells were immobilized. After the immobilization, the number of cells observed in predetermined four fields was counted and taken as the total number of cells. Non-adhered cells were removed by washing with a PBS (-) solution three times, and then the number of adhered cells in the same four fields as those mentioned above was counted under a microscope. Assuming that the adhesion inhibitory activity of FNIII14 that was not subjected to the treatment with serum was 100, the ratio of the residual adhesion inhibitory activity of FNIII14 or the modified peptide remaining after the serum treatment was evaluated in terms of percentage. In FIGS. 2A to 2C, white diamonds represent the results obtained using FNIII14, white squares represent the results obtained using Ace-FNIII14, white circles represent the results obtained using Met-FNIII14, and white triangles represent the results obtained using D-FNIII14. In FIG. 2D, black circles represent the activity of FNIII14, and black triangles represent the activity of D-Glu-FNIII14.

Compound	stability of activity in human serum (in words) (37° C.)	residual adhesion inhibitory activity after serum treatment (after 20 hours in 90% human serum, 37° C., FIG. 2A)	increase of activity in the serum (90% human serum, 37° C.) [%]	residual adhesion inhibitory activity after serum treatment (90% human serum, 37° C.)	resistance to decomposition in human serum (aminopeptidase or the like in human serum)	time at which decomposition tendency was exhibited in serum (long term stability over 60 hours, FIG. 2D) [h]
TEATITGLEPGTEYTIYVIAL [FNIII14, reference compound]	rapidly lost its activity within 2 hours	about 60%				
CC[C@H](C)[C@H](NC(=O)[C@@H](NC(=O)[C@H](Cc1ccc(O)cc1)NC(=O)[C@@H](NC(=O)[C@@H](NC(=O)[C@H](Cc1ccc(O)cc1)NC(=O)[C@H](CCC(=O)O)NC(=O)[C@@H](NC(=O)CNC(=O)[C@@H]1CCCN1C(=O)[C@H](CCC(=O)O)NC(=O)[C@H](CC(C)C)NC(=O)CNC(=O)[C@@H](NC(=O)[C@@H](NC(=O)[C@@H](NC(=O)[C@H](C)NC(=O)[C@@H](CCC(=O)O)NC(=O)[C@@H](N)[C@@H](C)O)[C@@H](C)O)[C@@H](C)CC)[C@@H](C)O)[C@@H](C)O)[C@@H](C)O)[C@@H](C)CC)C(C)C)C(=O)N[C@@H](C)C(=O)N[C@@H](CC(C)C)C(=O)O [D-Glu-FNIII14, T-[D-Glu]-ATITGLEPGTEYTIYVIAL] (H-T[dE]ATITGLEPGTEYTIYVIAL-OH; N-terminus and C-terminus assumed)	did not exhibit a decrease of its activity in the serum		≥ 20	over 100%	exhibited resistance to decomposition	≥ 50
CC[C@H](C)[C@H](NC(=O)[C@@H](NC(=O)[C@H](Cc1ccc(O)cc1)NC(=O)[C@@H](NC(=O)[C@@H](NC(=O)[C@H](Cc1ccc(O)cc1)NC(=O)[C@H](CCC(=O)O)NC(=O)[C@@H](NC(=O)CNC(=O)[C@@H]1CCCN1C(=O)[C@H](CCC(=O)O)NC(=O)[C@H](CC(C)C)NC(=O)CNC(=O)[C@@H](NC(=O)[C@@H](NC(=O)[C@@H](NC(=O)[C@H](C)NC(=O)[C@H](CCC(=O)O)N(C)C(=O)[C@@H](N)[C@@H](C)O)[C@@H](C)O)[C@@H](C)CC)[C@@H](C)O)[C@@H](C)O)[C@@H](C)O)[C@@H](C)CC)C(C)C)C(=O)N[C@@H](C)C(=O)N[C@@H](CC(C)C)C(=O)O [Met-FNIII14, [N-Me-Glu]^2-FNIII14] (H-T[NMeE]ATITGLEPGTEYTIYVIAL-OH; N-terminus and C-terminus assumed)	more stabilized than FNIII14					
Ac-TEATITGLEPGTEYTIYVIAL (N-terminus assumed) [Ace-FNIII14]	more stabilized than FNIII14					
